Test results published in patent US7105538B2, “2-pyrrolidin-2-yl-[1,3,4]-oxadiazole compounds and their use as anti-depressants” (Gruenenthal GmbH, priority 2002, dated 2006).

What follows are compounds tested on 5HT uptake (serotonin re-uptake), synaptosomes from rat brain (assay: Inhibition of serotonin re-uptake (5HT-uptake inhibition) in rat brain synaptosomes). Settings: synaptosomes (P2 fraction) from medulla+pons region of male rats' brains; test concentration not given.
Type: biochemical
Method: Tests of Inhibition of Serotonin Re-Uptake (5HT-Uptake Inhibition)
To be able to carry out these studies in vitro, synaptosomes were freshly isolated from rat brain areas. What is known as a “P2” fraction was used in each case. This was prepared in accordance with Gray and Whittaker's directions (E. G. Gray and V. P. Whittaker (1962) J. Anat. 76, 79–88). These vesicular particles were isolated from the medulla+pons region of male rats' brains for 5HT uptake. A detailed description of the method may be found in the literature (M. Ch. Frink, H.-H. Hennies, W. Englberger, M. Haurand and B. Wilffert (1996) Arzneim. -Forsch./Drug Res. 46 (III), 11,1029–1036). The 5HT-uptake inhibition of the following compounds was tested by way of example: […]

SMILES	5HT uptake, % inhibition [%]
O=S(=O)(Cc1ccc(F)cc1F)N1CCCC1c1nnc(-c2cccnc2)o1 (centres unmarked) [Example 86, 3-{5-[1-(2,4-difluoro-benzylsulfonyl)-pyrrolidin-2-yl]-[1,3,4]oxadiazol-2-yl}-pyridine]	73
O=C(N1CCc2ccc(S(=O)(=O)N3CCCC3c3nnc(-c4ccncc4)o3)cc2C1)C(F)(F)F (centres unmarked) [Example 182, 2,2,2-trifluoro-1-{7-[2-(5-pyridin-4-yl-[1,3,4]oxadiazol-2-yl)-pyrrolidin-1-sulfonyl]-3,4-dihydro-1H-isoquinolin-2-yl}-ethanone]	52
CC1(C)C2CCC1(CS(=O)(=O)N1CCCC1c1nnc(-c3ccncc3)o1)C(=O)C2 (centres unmarked) [Example 7, 7,7-dimethyl-1-[2-(5-pyridin-4-yl-[1,3,4]oxadiazol-2-yl)-pyrrolidin-1-sulfonylmethyl]-bicyclo[2.2.1]heptan-2-one]	64
O=C(c1cc(C(F)(F)F)ccc1C(F)(F)F)N1CCCC1c1nnc(-c2ccc(Cl)cc2)o1 (centres unmarked) [Example 164, (2,5-bis-trifluoromethyl-phenyl)-{2-[5-(4-chloro-phenyl)-[1,3,4]oxadiazol-2-yl]-pyrrolidin-1-yl}-methanone]	80
CN(C)c1cccc(C(=O)N2CCCC2c2nnc(-c3cccnc3)o2)c1 (centres unmarked) [Example 12, (3-dimethyamino-phenyl)-[2-(5-pyridin-3-yl-[1,3,4]oxadiazol-2-yl)-pyrrolidin-1-yl]-methanone]	54
COc1cccc(-c2nnc(C3CCCN3C(=O)c3cccc(F)c3F)o2)c1 (centres unmarked) [Example 173, (2,3-difluoro-phenyl)-{2-[5-(3-methoxy-phenyl)-[1,3,4]oxadiazol-2-yl]-pyrrolidin-1-yl}-methanone]	62
O=S(=O)(Cc1ccc(OC(F)(F)F)cc1)N1CCCC1c1nnc(-c2cccnc2)o1 (centres unmarked) [Example 134, 3-{5-[1-(4-trifluoromethoxy-benzylsulfonyl)-pyrrolidin-2-yl]-[1,3,4]oxadiazol-2-yl}-pyridine]	55
COc1ccc(CC(=O)N2CCCC2c2nnc(-c3ccncc3)o2)cc1OC (centres unmarked) [Example 13, 2-(3,4-dimethoxy-phenyl)-1-[2-(5-pyridin-4-yl-[1,3,4]oxadiazol-2-yl)-pyrrolidin-1-yl]-ethanone]	67
Cc1nn(-c2ccccc2)nc1C(=O)N1CCCC1c1nnc(-c2ccncc2)o1 (centres unmarked) [Example 85, (5-methyl-2-phenyl-[1,2.3]triazol-4-yl)-[2-(5-pyridin-4-yl-[1,3,4]oxadiazol-2-yl)-pyrrolidin-1-yl]-methanone]	61
Cc1nc(C(F)(F)F)ccc1C(=O)N1CCCC1c1nnc(-c2ccccc2)o1 (centres unmarked) [Example 174, (2-methyl-6-trifluoromethyl-pyridin-3-yl)-[2-(5-phenyl-[1,3,4]oxadiazol-2-yl)-pyrrolidin-1-yl]-methanone]	61
O=C(c1cccnc1Cl)N1CCCC1c1nnc(-c2ccncc2)o1 (centres unmarked) [Example 6, (2-chloro-pyridin-3-yl)-[2-(5-pyridin-4-yl-[1,3,4]oxadiazol-2-yl)pyrrolidin-1-yl]-methanone]	84
CCOc1ccc(C(=O)N2CCCC2c2nnc(-c3ccccc3)o2)cc1 (centres unmarked) [Example 109, (4-ethoxy-phenyl)-[2-(5-phenyl-[1,3,4]oxadiazol-2-yl)-pyrrolidin-1-yl]-methanone]	54
COc1ccc(OC)c(CS(=O)(=O)N2CCCC2c2nnc(-c3cccnc3)o2)c1 (centres unmarked) [Example 30, 3-{5-[1-(2,5-dimethoxyl-benzylsulfonyl)-pyrrolidin-2-yl]-[1,3,4]oxadiazol-2-yl}-pyridine]	60
COc1cccc(-c2nnc(C3CCCN3C(=O)c3ccc(Br)cc3)o2)c1 (centres unmarked) [Example 92, (4-bromo-phenyl)-{2-[5-(3-methoxy-phenyl)-[1,3,4]oxadiazol-2-yl]-pyrrolidin-1-yl}-methanone]	58
O=C(COc1ccc(Cl)cc1)N1CCCC1c1nnc(-c2ccncc2)o1 (centres unmarked) [Example 67, 2-(4-chloro-phenoxy)-1-[2-(5-pyridin-4-yl-[1,3,4]oxadiazol-2-yl)-pyrrolidin-1-yl]-ethanone]	50
CCCc1c(C(=O)N2CCCC2c2nnc(-c3cccnc3)o2)cnn1-c1ccccc1 (centres unmarked) [Example 166, (1-phenyl-5-propyl-1H-pyrazol-4-yl)-[2-(5-pyridin-3-yl-[1,3,4]oxadiazol-2-yl)-pyrrolidin-1-yl]-methanone]	78
O=C(c1cc(C(F)(F)F)ccc1C(F)(F)F)N1CCCC1c1nnc(-c2cccs2)o1 (centres unmarked) [Example 165, (2,5-bis-trifluoromethyl-phenyl)-[2-(5-thiophen-2-yl-[1,3,4]oxadiazol-2-yl)-pyrrolidin-1-yl]-methanone]	76
Cc1ccc(CS(=O)(=O)NC(Cc2ccccc2)C(=O)N2CCCC2c2nnc(-c3ccncc3)o2)cc1 (centres unmarked) [Example 21, N-{1-benzyl-2-oxo-2-[2-(5-pyridin-4-yl-[1,3,4]oxadiazol-2-yl)-pyrrolidin-1-yl]-ethyl}-4-methyl-benzylsulfonamide]	53
O=C(c1c(F)cccc1F)N1CCCC1c1nnc(-c2ccncc2)o1 (centres unmarked) [Example 101, (2,6-difluoro-phenyl)-[2-(5-pyridin-4-yl-[1,3,4]oxadiazol-2-yl)-pyrrolidin-1-yl]-methanone]	54
Cc1cc(C)c(CS(=O)(=O)N2CCCC2c2nnc(-c3ccccc3F)o2)c(C)c1 (centres unmarked) [Example 61, 2-(2-fluoro-phenyl)-5-[1-(2,4,6-trimethyl-benzylsulfonyl)-pyrrolidin-2-yl]-[1,3,4]oxadiazole]	50
CCOC(=O)CCC(=O)N1CCCC1c1nnc(-c2ccncc2)o1 (centres unmarked) [Example 4, 4-oxo-4-[2-(5-pyridin-4-yl-[1,3,4]oxadiazol-2-yl)-pyrrolidin-1-yl]-butyric acid ethyl ester]	72
COc1ccc(C(=O)N2CCCC2c2nnc(-c3ccncc3)o2)c(OC)c1 (centres unmarked) [Example 5, (2,4-dimethoxy-phenyl)-[2-(5-pyridin-4-yl-[1,3,4]oxadiazol-2-yl)-pyrrolidin-1-yl]methanone]	81
O=S(=O)(c1cc(Cl)c(Cl)s1)N1CCCC1c1nnc(-c2ccncc2)o1 (centres unmarked) [Example 22, 4-{5-[1-(4,5-dichloro-thiophene-2-sulfonyl)-pyrrolidin-2-yl]-[1,3,4]oxadiazol-2-yl}-pyridine]	60
O=C(c1ccc(SC(F)(F)F)cc1)N1CCCC1c1nnc(-c2ccccc2)o1 (centres unmarked) [Example 181, [2-(5-phenyl-[1,3,4]oxadiazol-2-yl)-pyrrolidin-1-yl]-(4-trifluoromethylsulfanyl-phenyl)-methanone]	62
COc1cccc(-c2nnc(C3CCCN3C(=O)c3ccnc(Cl)c3)o2)c1 (centres unmarked) [Example 94, (2-chloro-pyridin-4-yl)-{2-[5-(3-methoxy-phenyl)-[1,3,4]oxadiazol-2-yl]-pyrrolidin-1-yl}-methanone]	50
O=C(C=Cc1ccccc1)N1CCCC1c1nnc(-c2ccccc2)o1 (centres unmarked) [Example 84, 3-phenyl-1-[2-(5-phenyl-[1,3,4]oxadiazol-2-yl)-pyrrolidin-1-yl]-propenone]	61
O=C(c1ccc(Cl)cc1)N1CCCC1c1nnc(-c2ccc(-c3ccccc3)cc2)o1 (centres unmarked) [Example 14, [2-(5-biphenyl-4-yl-[1,3,4]oxadiazol-2-yl)-pyrrolidin-1-yl]-(4-chloro-phenyl)-methanone]	69

The compounds below were run on phenylquinone-induced writhing in mice (assay: Analgesic efficacy by phenylquinone-induced writhing in mice). Settings: male NMRI mice; 10 mg/kg i.v., 10 min before phenylquinone i.p.; writhing counted 5-20 min after phenylquinone.
Type: in vivo
Method: Investigation of Analgesic Efficacy by Testing Writhing in Mice
The investigation into analgesic efficacy was performed by phenylquinone-induced writhing in mice (modified after: I. C. Hendershot and J. Forsaith (1959), J. Pharmacol. Exp. Ther. 125, 237–240). Male NMRI mice weighing from 25 to 30 g were used for this purpose. 10 minutes after intravenous administration of the compounds tested, groups of 10 animals per substance dose received 0.3 ml/mouse of a 0.02% aqueous solution of phenylquinone (phenylbenzoquinone, Sigma, Deisenhofen; solution prepared by adding 5% of ethanol and stored in a water bath at 45° C.) administered intraperitoneally. The animals were placed individually into observation cages. A pushbutton counter was used to record the number of pain-induced stretching movements (writhing reactions=straightening of the torso with stretching of the rear extremities) for 5–20 minutes after phenylquinone administration. The control was provided by animals which received only physiological common salt solution. All substances were tested at the standard dosage of 10 mg/kg. The percentage inhibition (% inhibition) of the writhing reactions by a substance was calculated according to the following formula: […]

SMILES	% inhibition of writhing reaction by intravenous administration of 10 mg/kg [%]
CCCCC(=O)N1CCCC1c1nnc(-c2cccc(Cl)c2)o1 (centres unmarked) [Example 248, 1-{2-[5-(3-chloro-phenyl)-[1,3,4]oxadiazol-2-yl]-pyrrolidin-1-yl}-pentan-1-one]	45
O=C(CCC1CCCC1)N1CCCC1c1nnc(-c2cccc(Cl)c2)o1 (centres unmarked) [Example 247, 1-{2-[5-(3-chloro-phenyl)-[1,3,4]oxadiazol-2-yl]-pyrrolidin-1-yl}-3-cyclopentyl-propan-1-one]	33
